Test system: MRSA ATCC 43300
Assay: Neutropenic murine thigh infection model
Format: in vivo
Settings: neutropenic mice, 20 mg/kg, 24 h after dosing, n = 6/group
Procedure: Therefore, the in vivo efficacy of compounds 12c and 22c were assessed using the murine neutropenic thigh infection model. Mice groups treated with saline and tiamulin were chosen as the negative and positive controls.
Model experiments of neutropenic mouse thigh infection were manipulated as described in the literature. Female, six-week-old, specific-pathogen-free mice weighing approximately 23~26 g were used throughout the study. Mice were rendered neutropenic by injection of cyclophosphamide (Mead Johnson Pharmaceuticals, Evansville, IN) on day 4 (150 mg/kg) and day 1 (100 mg/kg) before the experiment. The neutrophil numbers in mice blood should be <0.1 × 10^9/L [34]. In total, 0.1 mL of MH broth of MRSA (10^7 CFU/mL) was inoculated into each thigh of the neutropenic mice. Mice were divided into 4 groups (6 mice per group), including control (sterile saline), compounds 12c, 22c and tiamulin groups. After 3 h post-infection, the corresponding drugs were injected into each mouse’s thigh. Mice were euthanized following intravenous injection for 24 h. Thigh tissue of each mouse was removed, collected, weighed and homogenized in 3 mL of ice sterile saline. Six ten-fold serial dilutions were performed and 25 μL of the bacterial solution from each tube was plated on MH agar plates. The resulting colonies were counted after 24 h incubation at 37 °C. The protocol for this study was reviewed and approved by the Institutional Animal Care and Use Committee of the South China Agricultural University.

C=C[C@]1(C)C[C@@H](OC(=O)CSc2ccc(Nc3nc(Cl)nc4c3cnn4-c3ccc(F)c(F)c3)cc2)[C@]2(C)[C@H](C)CC[C@]3(CCC(=O)[C@H]32)[C@@H](C)[C@@H]1O [Compound 22c, 22-[4-(6-Chloro-1-(3,4-difluorophenyl)-1H-pyrazolo[3,4-d]pyrimidine-4-yl)amino-Phenylsulfanyl]-22-deoxypleuromutilin]
reduction of MRSA load in thigh vs growth control: −0.93 log10 CFU/mL
